For two compounds, Ki, IC50 and inhibition results are on record in ChEMBL document CHEMBL4630901 (2021).

The target of assay [1] is Sigma intracellular receptor 2 (Homo sapiens, UniProt Q5BJF2). Description: GPCRScan assay: inhibition of Sigma 2. On the set-up: radioligand conc. used [nm] 5.0, parental cells HEKT.
The target of assay [2] is Prostaglandin F2-alpha receptor (Homo sapiens, UniProt P43088). Description: Bayer inhouse assay (human).
Assay [3] concerns the target 5-hydroxytryptamine receptor 1D (Homo sapiens) (UniProt P28221). As to conditions: Compound concentration 10.0 uM; call rule not given here.
Assay [4] deals with 5-hydroxytryptamine receptor 1E (Homo sapiens) (UniProt P28566). As to conditions: Compound concentration 10.0 uM.
Assay [5] deals with Sodium-dependent dopamine transporter (Homo sapiens) (UniProt Q01959). To be noted: Compound concentration 10.0 uM.
Assay [6] concerns the target Alpha-2B adrenergic receptor (Homo sapiens) (UniProt P18089). To be noted: Compound concentration 10.0 uM.
The species named for another assay is Homo sapiens. The assay is described as follows: Inhibition of Nicotinic Acetylcholine at compound concentration of 10.0 uM in the Eurofins-Panlabs radioligand binding assay (Eurofins_assay_258590). The class given is protein-complex assay. As to conditions: Compound concentration 10.0 uM.
For assay [7], the target named is T1, Prostaglandin E2 receptor EP1 subtype (Homo sapiens) (UniProt P34995).
T1 sequence (whole entry): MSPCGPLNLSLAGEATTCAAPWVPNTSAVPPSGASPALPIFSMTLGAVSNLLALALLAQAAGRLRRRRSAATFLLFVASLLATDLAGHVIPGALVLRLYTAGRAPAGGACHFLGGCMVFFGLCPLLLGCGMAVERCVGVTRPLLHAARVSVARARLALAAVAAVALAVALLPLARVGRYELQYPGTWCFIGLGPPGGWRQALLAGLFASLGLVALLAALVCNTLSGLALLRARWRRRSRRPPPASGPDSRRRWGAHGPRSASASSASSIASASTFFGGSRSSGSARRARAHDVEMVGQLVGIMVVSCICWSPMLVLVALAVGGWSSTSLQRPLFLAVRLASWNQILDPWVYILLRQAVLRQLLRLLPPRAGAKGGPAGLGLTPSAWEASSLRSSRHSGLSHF
The assay is described as follows: Prostanoid EP1 Eurofins-Panlabs radioligand binding assay. Further details: ligand concentration 1 nM.

In assay [8] the target is Histamine H4 receptor (Homo sapiens) (UniProt Q9H3N8). As to conditions: Compound concentration 10.0 uM.
Assay [9] deals with Beta-3 adrenergic receptor (Homo sapiens) (UniProt P13945). As to conditions: Compound concentration 10.0 uM.
Assay [10] concerns the target Adenosine receptor A3 (Homo sapiens) (UniProt P0DMS8). To be noted: Compound concentration 10.0 uM.
The target of assay [11] is T2, Alpha-1A adrenergic receptor (Homo sapiens) (UniProt P35348).
T2 sequence (whole entry): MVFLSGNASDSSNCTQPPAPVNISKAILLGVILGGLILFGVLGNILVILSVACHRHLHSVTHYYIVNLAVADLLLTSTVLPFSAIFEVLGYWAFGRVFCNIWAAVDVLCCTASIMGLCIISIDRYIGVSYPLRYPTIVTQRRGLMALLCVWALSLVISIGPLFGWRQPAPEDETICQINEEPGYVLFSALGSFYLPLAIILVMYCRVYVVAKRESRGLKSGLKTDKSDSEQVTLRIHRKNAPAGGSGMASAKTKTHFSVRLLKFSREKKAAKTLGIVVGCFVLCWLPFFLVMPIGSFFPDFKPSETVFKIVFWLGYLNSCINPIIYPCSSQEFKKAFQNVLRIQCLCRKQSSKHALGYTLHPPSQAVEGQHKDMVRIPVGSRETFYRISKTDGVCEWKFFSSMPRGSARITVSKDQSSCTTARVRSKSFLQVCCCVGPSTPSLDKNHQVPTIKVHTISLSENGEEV
To be noted: Rattus norvegicus; Compound concentration 10.0 uM.

Assay [12] addresses B2 bradykinin receptor (Homo sapiens) (UniProt P30411). To be noted: Compound concentration 10.0 uM.
Assay [13] concerns the target Endothelin-1 receptor (Homo sapiens) (UniProt P25101). As to conditions: Compound concentration 10.0 uM.
Assay [14] concerns the target Estrogen receptor (Homo sapiens) (UniProt P03372). To be noted: Compound concentration 10.0 uM.
For assay [15], the target named is Glutamate NMDA receptor (Rattus norvegicus) (UniProt P35439+Q00959+Q00960+Q00961+Q62645+Q8VHN2+Q9R1M7). To be noted: Compound concentration 10.0 uM.
Assay [16] has as its target T3, Muscarinic acetylcholine receptor M1 (Homo sapiens) (UniProt P11229).
T3 sequence (whole entry): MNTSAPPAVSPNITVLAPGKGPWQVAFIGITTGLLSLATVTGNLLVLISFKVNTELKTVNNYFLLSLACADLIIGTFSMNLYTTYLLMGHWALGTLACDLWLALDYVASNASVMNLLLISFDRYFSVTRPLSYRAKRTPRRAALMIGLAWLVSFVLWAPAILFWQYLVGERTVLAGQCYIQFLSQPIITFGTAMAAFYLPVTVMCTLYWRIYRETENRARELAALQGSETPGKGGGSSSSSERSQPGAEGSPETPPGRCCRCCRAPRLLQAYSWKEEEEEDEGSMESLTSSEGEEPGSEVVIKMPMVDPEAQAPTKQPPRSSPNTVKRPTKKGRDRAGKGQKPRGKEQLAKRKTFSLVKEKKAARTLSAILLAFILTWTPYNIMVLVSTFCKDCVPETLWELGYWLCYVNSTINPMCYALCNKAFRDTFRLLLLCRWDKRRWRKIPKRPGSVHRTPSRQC
As to conditions: Compound concentration 10.0 uM.

Assay [17] addresses 5-hydroxytryptamine receptor 2B (Homo sapiens) (UniProt P41595). As to conditions: Compound concentration 10.0 uM.
In assay [18] the target is Glucocorticoid receptor (Homo sapiens) (UniProt P04150). To be noted: Compound concentration 10.0 uM.
Assay [19] addresses Beta-3 adrenergic receptor (Homo sapiens) (UniProt P13945). To be noted: Compound concentration 10.0 uM. This is another data set of the same source.
Assay [20] concerns the target GABA-A receptor; anion channel (Rattus norvegicus) (UniProt O09028+P15431+P18506+P18508+P19969+P20236+P23574+P23576+P28471+P28473+P30191+P62813+P63079+P63138+Q91ZM7+Q9ES14). To be noted: Compound concentration 10.0 uM.
In assay [21] the target is Gamma-aminobutyric acid type B receptor subunit 1 (Homo sapiens) (UniProt Q9UBS5). As to conditions: Rattus norvegicus; Compound concentration 10.0 uM.
Assay [22] addresses Androgen receptor (Homo sapiens) (UniProt P10275). As to conditions: Compound concentration 10.0 uM.
Assay [23] concerns the target Growth hormone secretagogue receptor type 1 (Homo sapiens) (UniProt Q92847). As to conditions: Compound concentration 10.0 uM.
Assay [24] deals with Progesterone receptor (Homo sapiens) (UniProt P06401). To be noted: Compound concentration 10.0 uM.
Chain of Progesterone receptor (Homo sapiens) (P06401 whole entry): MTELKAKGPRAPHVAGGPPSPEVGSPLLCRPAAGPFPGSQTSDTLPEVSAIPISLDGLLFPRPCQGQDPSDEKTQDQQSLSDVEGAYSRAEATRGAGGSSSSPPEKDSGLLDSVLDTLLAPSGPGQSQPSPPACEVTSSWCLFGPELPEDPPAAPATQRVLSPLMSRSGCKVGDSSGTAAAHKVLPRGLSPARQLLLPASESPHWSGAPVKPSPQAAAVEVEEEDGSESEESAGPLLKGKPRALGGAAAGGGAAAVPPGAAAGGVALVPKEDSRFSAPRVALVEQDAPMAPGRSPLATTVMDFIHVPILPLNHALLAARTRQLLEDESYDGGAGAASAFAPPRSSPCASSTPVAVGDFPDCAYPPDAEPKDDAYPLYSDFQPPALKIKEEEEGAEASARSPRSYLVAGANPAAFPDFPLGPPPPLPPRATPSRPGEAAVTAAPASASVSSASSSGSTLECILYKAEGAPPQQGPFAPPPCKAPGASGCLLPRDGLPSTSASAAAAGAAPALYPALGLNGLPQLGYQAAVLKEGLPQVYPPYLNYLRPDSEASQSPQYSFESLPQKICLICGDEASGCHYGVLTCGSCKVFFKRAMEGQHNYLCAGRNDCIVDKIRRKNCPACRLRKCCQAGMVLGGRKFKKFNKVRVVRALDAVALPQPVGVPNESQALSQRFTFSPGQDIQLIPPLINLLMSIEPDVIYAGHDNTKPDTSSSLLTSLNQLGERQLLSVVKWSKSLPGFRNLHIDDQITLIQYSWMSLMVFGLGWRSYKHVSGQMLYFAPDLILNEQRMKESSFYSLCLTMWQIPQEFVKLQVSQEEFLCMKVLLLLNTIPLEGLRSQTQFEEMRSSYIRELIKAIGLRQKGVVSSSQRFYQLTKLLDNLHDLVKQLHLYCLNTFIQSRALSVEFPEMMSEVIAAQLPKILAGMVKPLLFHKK

Chain of Beta-3 adrenergic receptor (Homo sapiens) (P13945 whole entry, looked up): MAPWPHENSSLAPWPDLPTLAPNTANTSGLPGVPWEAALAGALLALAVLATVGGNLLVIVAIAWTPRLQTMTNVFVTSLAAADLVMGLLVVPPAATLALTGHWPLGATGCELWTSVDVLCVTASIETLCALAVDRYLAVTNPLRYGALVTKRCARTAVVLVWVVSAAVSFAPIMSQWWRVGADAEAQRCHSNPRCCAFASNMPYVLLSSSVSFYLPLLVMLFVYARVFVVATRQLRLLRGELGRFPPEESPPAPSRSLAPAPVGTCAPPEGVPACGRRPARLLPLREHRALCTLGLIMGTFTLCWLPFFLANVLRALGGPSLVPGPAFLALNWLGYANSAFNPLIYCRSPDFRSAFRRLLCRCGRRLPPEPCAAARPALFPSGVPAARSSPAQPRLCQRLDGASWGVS
Chain of Gamma-aminobutyric acid type B receptor subunit 1 (Homo sapiens) (Q9UBS5 whole entry): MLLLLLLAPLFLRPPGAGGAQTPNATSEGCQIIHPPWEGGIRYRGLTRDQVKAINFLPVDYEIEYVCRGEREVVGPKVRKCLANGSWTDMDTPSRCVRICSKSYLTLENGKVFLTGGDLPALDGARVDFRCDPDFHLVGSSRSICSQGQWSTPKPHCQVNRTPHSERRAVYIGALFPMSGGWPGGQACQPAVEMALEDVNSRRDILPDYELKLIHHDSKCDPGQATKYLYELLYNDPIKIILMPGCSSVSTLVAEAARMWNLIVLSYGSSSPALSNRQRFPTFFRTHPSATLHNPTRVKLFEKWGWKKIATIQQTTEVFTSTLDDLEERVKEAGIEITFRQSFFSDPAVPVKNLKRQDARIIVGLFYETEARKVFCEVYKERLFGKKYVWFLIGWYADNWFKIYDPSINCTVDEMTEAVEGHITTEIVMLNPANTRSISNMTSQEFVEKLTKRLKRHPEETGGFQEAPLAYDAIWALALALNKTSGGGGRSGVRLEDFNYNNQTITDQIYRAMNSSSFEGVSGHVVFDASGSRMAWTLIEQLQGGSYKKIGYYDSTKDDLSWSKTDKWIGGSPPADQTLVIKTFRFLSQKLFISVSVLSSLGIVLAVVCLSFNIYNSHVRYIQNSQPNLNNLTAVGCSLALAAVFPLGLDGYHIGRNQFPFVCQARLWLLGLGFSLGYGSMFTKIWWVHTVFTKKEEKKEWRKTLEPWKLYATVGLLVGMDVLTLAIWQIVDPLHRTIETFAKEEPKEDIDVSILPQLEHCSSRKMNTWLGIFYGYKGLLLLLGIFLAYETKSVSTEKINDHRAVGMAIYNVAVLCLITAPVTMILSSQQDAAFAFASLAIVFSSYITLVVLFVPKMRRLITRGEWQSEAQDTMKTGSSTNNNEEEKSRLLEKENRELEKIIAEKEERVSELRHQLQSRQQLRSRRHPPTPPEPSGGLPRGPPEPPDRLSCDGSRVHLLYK
Chain of Androgen receptor (Homo sapiens) (P10275 whole entry): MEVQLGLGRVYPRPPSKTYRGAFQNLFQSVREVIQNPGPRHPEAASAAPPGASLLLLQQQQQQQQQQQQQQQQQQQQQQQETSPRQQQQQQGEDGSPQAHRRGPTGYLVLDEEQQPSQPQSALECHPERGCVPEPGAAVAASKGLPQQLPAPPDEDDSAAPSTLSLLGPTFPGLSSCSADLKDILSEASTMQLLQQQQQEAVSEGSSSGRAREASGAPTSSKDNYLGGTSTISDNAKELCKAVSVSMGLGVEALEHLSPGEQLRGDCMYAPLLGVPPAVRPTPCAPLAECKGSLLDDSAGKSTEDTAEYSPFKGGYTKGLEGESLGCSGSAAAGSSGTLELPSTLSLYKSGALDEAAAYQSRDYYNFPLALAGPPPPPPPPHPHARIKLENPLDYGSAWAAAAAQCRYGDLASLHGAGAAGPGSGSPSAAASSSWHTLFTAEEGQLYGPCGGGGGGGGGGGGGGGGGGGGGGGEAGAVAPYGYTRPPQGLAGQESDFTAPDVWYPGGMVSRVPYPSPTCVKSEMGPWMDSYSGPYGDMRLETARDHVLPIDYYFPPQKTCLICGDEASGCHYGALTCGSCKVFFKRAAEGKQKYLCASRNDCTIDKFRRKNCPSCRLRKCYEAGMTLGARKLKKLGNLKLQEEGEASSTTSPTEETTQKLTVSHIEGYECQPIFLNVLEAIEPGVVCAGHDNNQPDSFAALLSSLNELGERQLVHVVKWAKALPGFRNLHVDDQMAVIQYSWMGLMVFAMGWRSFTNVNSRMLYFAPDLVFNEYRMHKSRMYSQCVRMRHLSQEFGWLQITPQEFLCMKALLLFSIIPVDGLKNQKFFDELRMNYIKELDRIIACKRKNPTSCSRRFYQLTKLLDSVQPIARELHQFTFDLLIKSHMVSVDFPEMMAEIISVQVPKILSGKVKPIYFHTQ
Chain of Sodium-dependent dopamine transporter (Homo sapiens) (Q01959 whole entry): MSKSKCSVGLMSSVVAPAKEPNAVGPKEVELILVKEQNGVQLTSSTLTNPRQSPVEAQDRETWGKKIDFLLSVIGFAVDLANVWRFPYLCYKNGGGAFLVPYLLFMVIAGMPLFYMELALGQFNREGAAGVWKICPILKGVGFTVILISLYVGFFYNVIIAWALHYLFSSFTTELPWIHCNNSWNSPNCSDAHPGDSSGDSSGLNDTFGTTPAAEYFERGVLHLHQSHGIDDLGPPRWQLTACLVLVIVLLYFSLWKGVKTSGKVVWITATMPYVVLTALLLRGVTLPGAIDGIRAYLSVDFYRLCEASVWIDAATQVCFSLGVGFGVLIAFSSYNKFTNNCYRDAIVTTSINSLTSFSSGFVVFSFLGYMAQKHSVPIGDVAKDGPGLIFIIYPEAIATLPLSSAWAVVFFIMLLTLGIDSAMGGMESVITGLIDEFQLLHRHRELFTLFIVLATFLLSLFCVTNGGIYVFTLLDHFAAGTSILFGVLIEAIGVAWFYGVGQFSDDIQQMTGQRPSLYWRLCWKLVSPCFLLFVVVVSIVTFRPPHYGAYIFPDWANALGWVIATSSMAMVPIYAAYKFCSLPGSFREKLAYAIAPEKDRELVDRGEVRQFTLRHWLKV
Chain of 5-hydroxytryptamine receptor 1D (Homo sapiens) (P28221 whole entry): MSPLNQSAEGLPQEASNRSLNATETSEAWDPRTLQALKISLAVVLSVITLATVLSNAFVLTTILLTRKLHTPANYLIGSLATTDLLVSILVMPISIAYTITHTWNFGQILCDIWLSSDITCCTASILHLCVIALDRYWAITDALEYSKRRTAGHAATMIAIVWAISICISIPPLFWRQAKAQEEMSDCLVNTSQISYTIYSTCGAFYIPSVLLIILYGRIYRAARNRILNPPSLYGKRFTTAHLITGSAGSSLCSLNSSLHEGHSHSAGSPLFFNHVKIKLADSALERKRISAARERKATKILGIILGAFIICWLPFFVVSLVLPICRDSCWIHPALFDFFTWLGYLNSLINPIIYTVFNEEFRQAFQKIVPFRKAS
Chain of Growth hormone secretagogue receptor type 1 (Homo sapiens) (Q92847 whole entry): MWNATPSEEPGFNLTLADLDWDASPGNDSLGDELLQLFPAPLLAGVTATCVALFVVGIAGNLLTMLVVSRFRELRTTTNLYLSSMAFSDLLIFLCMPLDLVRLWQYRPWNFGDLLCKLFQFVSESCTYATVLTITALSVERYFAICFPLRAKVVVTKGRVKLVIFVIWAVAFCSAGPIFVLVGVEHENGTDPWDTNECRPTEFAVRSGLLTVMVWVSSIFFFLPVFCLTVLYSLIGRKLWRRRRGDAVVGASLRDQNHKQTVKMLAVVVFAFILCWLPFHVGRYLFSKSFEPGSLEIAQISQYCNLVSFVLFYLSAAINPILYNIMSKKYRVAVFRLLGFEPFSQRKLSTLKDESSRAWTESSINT
Chain of Alpha-2B adrenergic receptor (Homo sapiens) (P18089 whole entry): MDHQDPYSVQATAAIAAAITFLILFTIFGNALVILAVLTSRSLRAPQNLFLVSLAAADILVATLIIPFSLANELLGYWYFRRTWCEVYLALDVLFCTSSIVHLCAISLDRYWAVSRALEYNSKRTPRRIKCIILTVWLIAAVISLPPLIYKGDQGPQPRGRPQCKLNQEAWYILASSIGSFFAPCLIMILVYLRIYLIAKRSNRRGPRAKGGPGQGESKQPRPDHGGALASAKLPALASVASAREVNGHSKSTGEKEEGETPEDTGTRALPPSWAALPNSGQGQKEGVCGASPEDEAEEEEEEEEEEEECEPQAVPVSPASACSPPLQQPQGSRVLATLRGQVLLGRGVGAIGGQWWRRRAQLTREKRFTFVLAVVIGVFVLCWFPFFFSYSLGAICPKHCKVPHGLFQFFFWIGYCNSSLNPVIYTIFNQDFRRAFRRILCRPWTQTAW

Consider `Cc1c(N2CCNCC2)nc2ccc(Br)cc2c1C(=O)NC[C@H](CCC(=O)O)c1ccccc1Cl` [BAY-403], for which, in assay [1], the inhibition constant (Ki) stood at 1100 nM. Moreover, the IC50 in assay [2] is 1.2 µM (not active). Besides, the inhibition in assay [3] was 9.12%; in assay [4] it was 18.3%; in assay [5], 33.5%; in [6], -3.2%.

For `Cc1c(N2CCCC2)nc2ccc(Br)cc2c1C(=O)NC[C@H](CCC(=O)O)c1ccccc1Cl` [BAY-6672], the inhibition in the assay listed under Homo sapiens is 3%; in assay [7] (Compound concentration 0.001 uM), 11%; in assay [7] (Compound concentration 0.01 uM), -2%; in assay [7] (Compound concentration 0.1 uM), 1%; in [7] (Compound concentration 1.0 uM), -5%; in assay [7] (Compound concentration 10.0 uM) it was 22%. Further, the inhibition in assay [8] was 13.1%; in assay [9], 21.6%; in assay [10], 15%; in assay [11], 6%; in assay [12], -6%; in assay [13] it was -1%. Besides, the inhibition is 1% in [14]; -5% in assay [15]; 9% in [16]; 12% in [17]; 11% in [18]; 4% in [19]. In addition, the inhibition in [20] was 26%; in assay [21], -4%; in assay [22], 3%; in [23], 3%; in assay [24] it was 14%.

What is called Ki is the equilibrium dissociation constant of an inhibitor or competing ligand from its target. The IC50 is the concentration that gives 50% inhibition. The low end stands for higher potency, the high end for lower potency. The inhibition is the drop in the measured response relative to a control, in per cent.
